Measured values published in ChEMBL document CHEMBL5321245, “Synthesis and Bioactivity of Isoflavones from Ficus carica and Some Non-Natural Analogues” (J Nat Prod, 2023).
In brackets after ≈: the same amount, converted by molar mass.

Legend:
[1] = test system: Klebsiella pneumoniae; test: Antibacterial activity against Klebsiella pneumoniae KP63 assessed as inhibition of bacterial growth incubated for 18 to 24 hrs in presence of PAbetaN by microdilution method; assay type: functional; conditions: time 18-24 hrs
[2] = test system: Staphylococcus aureus; test: Antibacterial activity against methicillin-resistant Staphylococcus aureus 6 assessed as inhibition of bacterial growth incubated for 18 to 24 hrs by microdilution method; assay type: functional; conditions: time 18-24 hrs
[3] = test system: Providencia stuartii; test: Antibacterial activity against Providencia stuartii PS2636 assessed as inhibition of bacterial growth incubated for 18 to 24 hrs in the presence of PAbetaN by microdilution method; assay type: functional; conditions: time 18-24 hrs
[4] = test system: Escherichia coli; test: Antibacterial activity against Escherichia coli ATCC 10536 assessed as inhibition of bacterial growth incubated for 18 to 24 hrs by microdilution method; assay type: functional; conditions: time 18-24 hrs
[5] = test system: Staphylococcus aureus; test: Antibacterial activity against methicillin-resistant Staphylococcus aureus 4 assessed as inhibition of bacterial growth incubated for 18 to 24 hrs in the presence of PAbetaN by microdilution method; assay type: functional; conditions: time 18-24 hrs
[6] = test system: Pseudomonas aeruginosa; test: Antibacterial activity against Pseudomonas aeruginosa PA124 assessed as inhibition of bacterial growth incubated for 18 to 24 hrs by microdilution method; assay type: functional; conditions: time 18-24 hrs
[7] = test system: RAW264.7; test: Antiinflammatory activity in mouse RAW264.7 cells assessed as inhibition of LPS-induced NO production; assay type: functional, cell-based
[8] = test system: SMMC-7721; test: Antiproliferative activity against human SMMC-7721 cells assessed as inhibition of cell growth by MTT assay; assay type: functional, cell-based
[9] = test system: Escherichia coli; test: Antibacterial activity against Escherichia coli ATCC 10536 assessed as inhibition of bacterial growth incubated for 18 to 24 hrs in the presence of PAbetaN by microdilution method; assay type: functional; conditions: time 18-24 hrs
[10] = test system: Klebsiella pneumoniae; test: Antibacterial activity against Klebsiella pneumoniae KP63 assessed as inhibition of bacterial growth incubated for 18 to 24 hrs by microdilution method; assay type: functional; conditions: time 18-24 hrs
[11] = test system: Escherichia coli; test: Antibacterial activity against Escherichia coli AG102 assessed as inhibition of bacterial growth incubated for 18 to 24 hrs by microdilution method; assay type: functional; conditions: time 18-24 hrs
[12] = test system: Providencia stuartii; test: Antibacterial activity against Providencia stuartii PS2636 assessed as inhibition of bacterial growth incubated for 18 to 24 hrs by microdilution method; assay type: functional; conditions: time 18-24 hrs
[13] = test system: Providencia stuartii; test: Antibacterial activity against Providencia stuartii NEA16 assessed as inhibition of bacterial growth incubated for 18 to 24 hrs by microdilution method; assay type: functional; conditions: time 18-24 hrs
[14] = test system: Staphylococcus aureus; test: Antibacterial activity against methicillin-resistant Staphylococcus aureus 6 assessed as inhibition of bacterial growth incubated for 18 to 24 hrs in the presence of PAbetaN by microdilution method; assay type: functional; conditions: time 18-24 hrs
[15] = test system: SW480; test: Antiproliferative activity against human SW480 cells assessed as inhibition of cell growth by MTT assay; assay type: functional, cell-based
[16] = test system: Klebsiella pneumoniae; test: Antibacterial activity against Klebsiella pneumoniae ATCC 11296 assessed as inhibition of bacterial growth incubated for 18 to 24 hrs in presence of PAbetaN by microdilution method; assay type: functional; conditions: time 18-24 hrs
[17] = test system: Providencia stuartii; test: Antibacterial activity against Providencia stuartii NEA16 assessed as inhibition of bacterial growth incubated for 18 to 24 hrs in the presence of PAbN by microdilution method; assay type: functional; conditions: time 18-24 hrs
[18] = test system: Pseudomonas aeruginosa; test: Antibacterial activity against Pseudomonas aeruginosa PA124 assessed as inhibition of bacterial growth incubated for 18 to 24 hrs in the presence of PAbetaN by microdilution method; assay type: functional; conditions: time 18-24 hrs
[19] = test system: CCRF-CEM; test: Cytotoxicity against drug sensitive human CCRF-CEM cells assessed as inhibition of cell growth at 10 uM incubated for 72 hrs by resazurin dye based assay relative to control; assay type: functional
[20] = test system: Escherichia coli; test: Antibacterial activity against Escherichia coli AG102 assessed as inhibition of bacterial growth incubated for 18 to 24 hrs in the presence of PAbetaN by microdilution method; assay type: functional; conditions: time 18-24 hrs
[21] = test system: MCF7; test: Antiproliferative activity against human MCF7 cells assessed as inhibition of cell growth by MTT assay; assay type: functional, cell-based
[22] = test system: Pseudomonas aeruginosa; test: Antibacterial activity against Pseudomonas aeruginosa PA01 assessed as inhibition of bacterial growth incubated for 18 to 24 hrs in the presence of PAbetaN by microdilution method; assay type: functional; conditions: time 18-24 hrs
[23] = test system: HL-60; test: Antiproliferative activity against human HL-60 cells assessed as inhibition of cell growth by MTT assay; assay type: functional, cell-based
[24] = test system: Pseudomonas aeruginosa; test: Antibacterial activity against Pseudomonas aeruginosa PA01 assessed as inhibition of bacterial growth incubated for 18 to 24 hrs by microdilution method; assay type: functional; conditions: time 18-24 hrs
[25] = test system: Klebsiella pneumoniae; test: Antibacterial activity against Klebsiella pneumoniae ATCC 11296 assessed as inhibition of bacterial growth incubated for 18 to 24 hrs by microdilution method; assay type: functional; conditions: time 18-24 hrs
[26] = test system: A549; test: Antiproliferative activity against human A549 cells assessed as inhibition of cell growth by MTT assay; assay type: functional, cell-based
[27] = test system: Staphylococcus aureus; test: Antibacterial activity against methicillin-resistant Staphylococcus aureus 4 assessed as inhibition of bacterial growth incubated for 18 to 24 hrs by microdilution method; assay type: functional; conditions: time 18-24 hrs
[28] = Resistance index, ratio of IC50 for multidrug resistant human CEM/ADR5000 cells overexpressing p-glycoprotein to IC50 for drug sensitive human CCRF-CEM cells; assay type: functional
[29] = test system: Staphylococcus aureus; test: Antibacterial activity against Staphylococcus aureus […] assessed as inhibition of bacterial growth incubated for 24 hrs by broth microdilution method; assay type: functional
[30] = test system: Candida albicans; test: Antimicrobial activity against Candida albicans ATCC 2091 assessed as inhibition of microbial growth incubated for 48 hrs by broth microdilution method; assay type: functional
[31] = test system: Enterococcus faecalis; test: Antibacterial activity against Enterococcus faecalis ATCC10541 assessed as inhibition of bacterial growth incubated for 24 hrs by broth microdilution method; assay type: functional
[32] = test system: Providencia stuartii; test: Antibacterial activity against Providencia stuartii ATCC29916 assessed as inhibition of bacterial growth incubated for 24 hrs by broth microdilution method; assay type: functional
[33] = test system: Nannizzia gypsea; test: Antimicrobial activity against Microsporum gypseum E1420 assessed as inhibition of microbial growth incubated for 5 days by broth microdilution method; assay type: functional; conditions: E1420, 120 h, time 5 day
[34] = test system: Meyerozyma guilliermondii; test: Antimicrobial activity against clinical isolate Candida guilliermondii assessed as inhibition of microbial growth incubated for 48 hrs by broth microdilution method; assay type: functional
[35] = test system: ADR5000 cell line; test: Cytotoxicity against multidrug resistant human CEM/ADR5000 cells overexpressing p-glycoprotein assessed as inhibition of cell growth incubated for 72 hrs by resazurin dye based assay; assay type: functional; conditions: ADR5000, 72 h
[36] = test system: CCRF-CEM; test: Cytotoxicity against drug sensitive human CCRF-CEM cells assessed as inhibition of cell growth incubated for 72 hrs by resazurin dye based assay; assay type: functional

Structure (SMILES) | MIC [1] [µg/mL] | MIC [2] [µg/mL] | MIC [3] [µg/mL] | MIC [4] [µg/mL] | MIC [5] [µg/mL] | MIC [6] [µg/mL] | MIC [9] [µg/mL] | MIC [10] [µg/mL] | MIC [11] [µg/mL] | MIC [12] [µg/mL] | MIC [13] [µg/mL] | MIC [14] [µg/mL] | MIC [16] [µg/mL] | MIC [17] [µg/mL] | MIC [18] [µg/mL] | MIC [20] [µg/mL] | MIC [22] [µg/mL] | MIC [24] [µg/mL] | MIC [25] [µg/mL] | MIC [27] [µg/mL] | further results
COc1ccc(-c2coc3cc(OC)c(CC=C(C)C)c(OC)c3c2=O)cc1 | 1 | 32 (≈ 84.1 µM) | 4 | 32 (≈ 84.1 µM) | 8 | 64 (≈ 168 µM) | 2 | > 130 | 32 (≈ 84.1 µM) | 130 (≈ 342 µM) | 130 (≈ 342 µM) | 2 | 2 | 4 | 8 | 2 | 64 | > 130 | 130 (≈ 342 µM) | 64 (≈ 168 µM) | IC50 [7]: 2060 nM; IC50 [8]: 630 nM; IC50 [15]: 630 nM; inhibition at 10 µM [19]: < 50%; IC50 [21]: 630 nM; IC50 [23]: 630 nM; IC50 [26]: 630 nM
CC(=O)O[C@H]1C(=O)[C@@]2(C)[C@H]([C@H](OC(=O)c3ccccc3)[C@]3(O)C[C@H](OC(=O)[C@H](O)[C@@H](NC(=O)c4ccccc4)c4ccccc4)C(C)=C1C3(C)C)[C@]1(OC(C)=O)CO[C@@H]1C[C@@H]2O [PACLITAXEL] |  |  |  |  |  |  |  |  |  |  |  |  |  |  |  |  |  |  |  |  | Ratio IC50 [28]: 390
COc1cc2occ(-c3ccc4[nH]ccc4c3)c(=O)c2c(OC)c1CC=C(C)C | 1 | 32 (≈ 82.2 µM) | 4 | 130 (≈ 334 µM) | 4 | > 130 | 130 | > 130 | 130 (≈ 334 µM) | 64 (≈ 164 µM) | 130 (≈ 334 µM) | 1 | 4 | 8 | 2 | 64 | 8 | 130 (≈ 334 µM) | 130 (≈ 334 µM) | > 130 | inhibition at 10 µM [19]: < 50%
COc1cc2occ(-c3ccc(O)cc3)c(=O)c2c(OC)c1CC=C(C)C | 1 | 32 (≈ 87.3 µM) | 4 | 130 (≈ 355 µM) | 32 | 32 (≈ 87.3 µM) | 2 | 16 (≈ 43.7 µM) | 16 (≈ 43.7 µM) | 130 (≈ 355 µM) | 8 (≈ 21.8 µM) | 32 | 2 | 1 | 4 | 4 | 130 | 130 (≈ 355 µM) | 130 (≈ 355 µM) | 64 (≈ 175 µM) | MIC [29]: ≥ 100 µg/mL; MIC [30]: 12.5 µg/mL; MIC [31]: ≥ 100 µg/mL; MIC [32]: ≥ 100 µg/mL; MIC [33]: 12.5 µg/mL; MIC [34]: 12.5 µg/mL; inhibition at 10 µM [19]: < 50%
O=C(O)c1cn(C2CC2)c2cc(N3CCNCC3)c(F)cc2c1=O [CIPROFLOXACIN] |  | 4 (≈ 12.1 µM) | 0.5 |  | 1 | 4 (≈ 12.1 µM) |  |  |  | 4 (≈ 12.1 µM) | 2 (≈ 6.04 µM) | 1 |  | 0.25 | 1 |  |  |  | 1 (≈ 3.02 µM) | 8 (≈ 24.1 µM) | 
COc1cc2occ(-c3ccc(C=O)cc3)c(=O)c2c(OC)c1CC=C(C)C | 2 | 130 (≈ 344 µM) | 16 | 32 (≈ 84.6 µM) | 8 | 130 (≈ 344 µM) | 8 | 130 (≈ 344 µM) | 130 (≈ 344 µM) | 130 (≈ 344 µM) | 64 (≈ 169 µM) | 64 | 8 | 2 | 8 | 8 | 16 | 64 (≈ 169 µM) | > 130 | 130 (≈ 344 µM) | IC50 [35]: 20000 nM; IC50 [36]: 20000 nM
COc1cc2occ(-c3ccc(C#N)cc3)c(=O)c2c(OC)c1CC=C(C)C | 1 | 130 (≈ 346 µM) | 8 | 32 (≈ 85.2 µM) | 4 | > 130 | 2 | > 130 | 130 (≈ 346 µM) | 130 (≈ 346 µM) | 16 (≈ 42.6 µM) | 16 | 4 | 1 | 32 | 130 | 32 | 130 (≈ 346 µM) | 130 (≈ 346 µM) | 64 (≈ 170 µM) | IC50 [35]: 20000 nM; IC50 [36]: 20000 nM
COc1cc2occ(-c3ccc4c(c3)OCO4)c(=O)c2c(OC)c1CC=C(C)C | 1 | 32 (≈ 81.1 µM) | 32 | 130 (≈ 330 µM) | 32 | 130 (≈ 330 µM) | 64 | 16 (≈ 40.6 µM) | 130 (≈ 330 µM) | 130 (≈ 330 µM) | 130 (≈ 330 µM) | 2 | 1 | 8 | 4 | 32 | 16 | 64 (≈ 162 µM) | 130 (≈ 330 µM) | 130 (≈ 330 µM) | inhibition at 10 µM [19]: < 50%
COc1c(CC=C(C)C)c(O)cc2occ(-c3ccc4c(c3)OCO4)c(=O)c12 |  |  |  |  |  |  |  |  |  |  |  |  |  |  |  |  |  |  |  |  | MIC [32]: 25 µg/mL (≈ 65.7 µM)
